Data as given in publication PMC11009956, “Initial Primer Synthesis of a DNA Primase Monitored by Real-Time NMR Spectroscopy” (Journal of the American Chemical Society, 2024).

Key:
[1] = target: T1, functional pRN1 primase (Saccharolobus islandicus, UniProt Q54324); test: […] CP-MAS solid-state NMR; 1H-detected hNH NMR; assay type: biochemical; conditions: formed in situ from ATP^N and dGTP^C on primase-DNA complex; triphosphate remains bound to HBD
T1 construct: primase part (catalytic domain plus HBD), residues 40-370, monomeric, expressed in E. coli BL21(DE3) Codon+, Ni2+ IMAC purified (tag not described)

[2] = target: T1, functional pRN1 primase; test: time-resolved solution NMR of dinucleotide formation; assay type: biochemical; conditions: primase-DNA complex
[3] = target: T2, helix-bundle domain (HBD) of pRN1 primase (Saccharolobus islandicus, UniProt Q54324); test: 1H-15N HSQC NMR titration; assay type: binding; conditions: 10 mM MgCl2, pH 7.0, 298 K
T2 construct: helix-bundle domain, residues 256-370, expressed in E. coli BL21(DE3) Codon+, Ni2+ IMAC purified (tag not described)

[4] = target: T1, functional pRN1 primase; test: […] CP-MAS solid-state NMR; 1H-15N HSQC NMR; assay type: biochemical; conditions: primase-DNA complex with dGTP^C; 10 mM MgCl2, pH 7.0; slow substrate
[5] = target: T2, helix-bundle domain (HBD) of pRN1 primase; test: 1H-15N HSQC NMR; assay type: binding; conditions: HBD-DNA complex
[6] = target: T3, catalytic domain of pRN1 primase (Saccharolobus islandicus, UniProt Q54324); test: 1H-15N HSQC NMR titration; assay type: binding; conditions: free catalytic domain, no DNA; 10 mM MgCl2, pH 7.0, 298 K; near active site (V148, S150)
T3 construct: catalytic domain, residues 40-248, expressed in E. coli BL21(DE3) Codon+, Ni2+ IMAC purified (tag not described)

[7] = target: T4, functional pRN1 primase (Saccharolobus islandicus, UniProt Q54324, H145A); test: […] CP-MAS solid-state NMR; assay type: binding; conditions: catalytically inactive mutant; primase-DNA complex with ATP^N; 10 mM MgCl2, pH 7.0
T4 construct: primase part (catalytic domain plus HBD), residues 40-370, monomeric, expressed in E. coli BL21(DE3) Codon+, Ni2+ IMAC purified (tag not described)

[8] = target: T1, functional pRN1 primase; test: […] CP-MAS solid-state NMR; assay type: biochemical; conditions: primase-DNA complex with ATP^N; 10 mM MgCl2, pH 7.0, 281 K; bound by HBD, slow substrate
[9] = target: T5, pRN1 primase (functional primase) (Sulfolobus islandicus (plasmid pRN1), UniProt Q54324 40-370); test: NMR (1H-15N HSQC; 31P CP-MAS); ATPC + dGTPC; HBD titrations: 25 mM sodium phosphate pH 7.0, 75 mM NaCl, 10 mM MgCl2, 298 K, 0.1 mM HBD, HBD:DNA 1:1.1; solid-state NMR on sedimented complex at 278-309 K; conditions: protein: recombinant; single strand
T5 sequence: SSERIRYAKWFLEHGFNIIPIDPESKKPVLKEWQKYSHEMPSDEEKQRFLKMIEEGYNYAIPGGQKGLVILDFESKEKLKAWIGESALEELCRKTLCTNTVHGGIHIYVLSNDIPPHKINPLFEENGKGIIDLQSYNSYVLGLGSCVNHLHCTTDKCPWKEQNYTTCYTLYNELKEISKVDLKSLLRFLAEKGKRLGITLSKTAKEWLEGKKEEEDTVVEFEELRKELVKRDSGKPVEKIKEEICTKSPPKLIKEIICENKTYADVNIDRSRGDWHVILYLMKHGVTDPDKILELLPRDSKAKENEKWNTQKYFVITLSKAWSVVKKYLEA

[10] = target: T6, pRN1 primase helix-bundle domain (HBD) (Sulfolobus islandicus (plasmid pRN1), UniProt Q54324 256-370); test: NMR (1H-15N HSQC); ATP + dGTP, 10 mM Mg2+, 298 K; HBD titrations: 25 mM sodium phosphate pH 7.0, 75 mM NaCl, 10 mM MgCl2, 298 K, 0.1 mM HBD, HBD:DNA 1:1.1; solid-state NMR on sedimented complex at 278-309 K; conditions: protein: recombinant; single strand
T6 sequence: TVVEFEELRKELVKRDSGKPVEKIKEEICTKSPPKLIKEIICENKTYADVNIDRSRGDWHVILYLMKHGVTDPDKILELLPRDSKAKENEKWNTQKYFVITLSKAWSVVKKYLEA

[11] = target: T7, pRN1 primase H145A (Sulfolobus islandicus (plasmid pRN1), UniProt Q54324 40-370, H145A); test: solid-state NMR (31P CP-MAS, hNH); ATPN + dGTPC, Mg2+; HBD titrations: 25 mM sodium phosphate pH 7.0, 75 mM NaCl, 10 mM MgCl2, 298 K, 0.1 mM HBD, HBD:DNA 1:1.1; solid-state NMR on sedimented complex at 278-309 K; conditions: protein: recombinant; single strand
T7 sequence: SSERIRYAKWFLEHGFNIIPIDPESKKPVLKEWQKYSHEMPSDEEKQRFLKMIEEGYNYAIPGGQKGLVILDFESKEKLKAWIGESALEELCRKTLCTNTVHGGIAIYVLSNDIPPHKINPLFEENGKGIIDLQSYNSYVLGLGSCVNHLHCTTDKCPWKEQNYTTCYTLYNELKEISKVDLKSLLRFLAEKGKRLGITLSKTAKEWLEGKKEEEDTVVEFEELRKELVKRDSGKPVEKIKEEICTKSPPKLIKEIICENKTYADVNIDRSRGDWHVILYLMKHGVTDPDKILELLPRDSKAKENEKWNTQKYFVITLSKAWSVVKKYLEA

Nc1nc2c(ncn2[C@H]2C[C@H](O)[C@@H](COP(=O)(O)O[C@H]3[C@@H](O)[C@H](n4cnc5c(N)ncnc54)O[C@@H]3COP(=O)(O)OP(=O)(O)NP(=O)(O)O)O2)c(=O)[nH]1
31P CP-MAS solid-state NMR; 1H-detected hNH NMR [1]: We attribute this initial increase to dinucleotide formation and subsequent binding to pRN1 primase

Nc1ncnc2c1ncn2[C@@H]1O[C@H](COP(=O)(O)OP(=O)(O)OP(=O)(O)O)[C@@H](O)[C@H]1O [ATP]
time-resolved solution NMR of dinucleotide formation ([2]; co-substrate dGTP): dinucleotide formation with the cognate NTPs was terminated within several minutes
1H-15N HSQC NMR titration ([3]; HBD-DNA complex, two ATP bound): The data reveal that HBD binds one ATP and one dGTP

Nc1ncnc2c1ncn2[C@@H]1O[C@H](COP(=O)(O)OP(=O)(O)CP(=O)(O)O)[C@@H](O)[C@H]1O [ATP^C]
31P CP-MAS solid-state NMR; 1H-15N HSQC NMR [4]: indeed showing the bound dGTP^C and ATP^C as well as the DNA
1H-15N HSQC NMR ([5]; added together with dGTP^C): both ATP^C and dGTP^C were rapidly added to the HBD-DNA^CT complex

Nc1nc2c(ncn2[C@@H]2O[C@H](COP(=O)(O)OP(=O)(O)OP(=O)(O)O)[C@@H](O)[C@H]2O)c(=O)[nH]1 [GTP]
1H-15N HSQC NMR titration ([3]; HBD-DNA complex with ATP): it could bind to the HBD domain in the same manner as for the dGTP substrate

Nc1ncnc2c1ncn2[C@H]1C[C@H](O)[C@@H](COP(=O)(O)OP(=O)(O)OP(=O)(O)O)O1 [dATP]
1H-15N HSQC NMR titration [6]: addition of dATP to the catalytic domain resulted in visible CSPs of V148 and S150

Nc1nc2c(ncn2[C@H]2C[C@H](O)[C@@H](COP(=O)(O)OP(=O)(O)OP(=O)(O)O)O2)c(=O)[nH]1 [dGTP]
time-resolved solution NMR of dinucleotide formation ([2]; co-substrate ATP): active primase bound to DNA^CT and the cognate NTPs (ATP and dGTP)
1H-15N HSQC NMR titration ([3]; HBD-DNA complex with ATP, displaces one ATP): titration of dGTP in a solution of HBD-DNA^CT-2ATP led to the substitution of one ATP

Nc1nc2c(ncn2[C@H]2C[C@H](O)[C@@H](COP(=O)(O)OP(=O)(O)CP(=O)(O)O)O2)c(=O)[nH]1 [dGTP^C]
31P CP-MAS solid-state NMR [7]: wt primase and the mutant H145A bound to DNA^CT, ATP^N and dGTP^C
31P CP-MAS solid-state NMR [8]: The isolated resonances of bound dGTP^C decrease in the solid state
1H-15N HSQC NMR ([5]; added together with ATP^C): both ATP^C and dGTP^C were rapidly added to the HBD-DNA^CT complex

B1: DNACT (GTG-motif template) (ssDNA)
DNA: CTGTGCTCA
binding result [9]: binds
binding result [10]: binds
binding result [11]: binds
